Measurements published in the NIST ThermoML archive (doi:10.1021/acs.jced.7b00201).

Experiment: xn = mol fraction of the nth substance listed
Settings: 100 kPa, Liquid; for viscosity: Falling or rolling sphere viscometry; for mass density: Vibrating tube method

CCCCC1CCCCC1 [butylcyclohexane] + CCCCCCCCCCCC
Settings | mass density [kg/m3] | viscosity [mPa·s]
293.15 K, x2 = 0 | 799.34 | 1.305
293.15 K, x2 = 0.1017 | 792.77 | 1.319
293.15 K, x2 = 0.1996 | 786.82 | 1.334
293.15 K, x2 = 0.2951 | 781.36 | 1.348
293.15 K, x2 = 0.4221 | 774.55 | 1.369
293.15 K, x2 = 0.5126 | 769.99 | 1.384
293.15 K, x2 = 0.6256 | 764.59 | 1.404
293.15 K, x2 = 0.7002 | 761.2 | 1.418
293.15 K, x2 = 0.7989 | 756.92 | 1.437
293.15 K, x2 = 0.9012 | 752.7 | 1.457
298.15 K, x2 = 0 | 795.59 | 1.202
298.15 K, x2 = 0.1017 | 789.05 | 1.215
298.15 K, x2 = 0.1996 | 783.12 | 1.228
298.15 K, x2 = 0.2951 | 777.68 | 1.241
298.15 K, x2 = 0.4221 | 770.9 | 1.258
298.15 K, x2 = 0.5126 | 766.35 | 1.272
298.15 K, x2 = 0.6256 | 760.96 | 1.289
298.15 K, x2 = 0.7002 | 757.57 | 1.3
298.15 K, x2 = 0.7989 | 753.3 | 1.318
298.15 K, x2 = 0.9012 | 749.09 | 1.335
303.15 K, x2 = 0 | 791.84 | 1.112
303.15 K, x2 = 0.1017 | 785.32 | 1.123
303.15 K, x2 = 0.1996 | 779.41 | 1.135
303.15 K, x2 = 0.2951 | 773.99 | 1.146
303.15 K, x2 = 0.4221 | 767.22 | 1.162
303.15 K, x2 = 0.5126 | 762.68 | 1.173
303.15 K, x2 = 0.6256 | 757.3 | 1.187
303.15 K, x2 = 0.7002 | 753.92 | 1.197
303.15 K, x2 = 0.7989 | 749.66 | 1.211
303.15 K, x2 = 0.9012 | 745.45 | 1.226
308.15 K, x2 = 0 | 788.07 | 1.033
308.15 K, x2 = 0.1017 | 781.58 | 1.043
308.15 K, x2 = 0.1996 | 775.69 | 1.053
308.15 K, x2 = 0.2951 | 770.28 | 1.063
308.15 K, x2 = 0.4221 | 763.53 | 1.076
308.15 K, x2 = 0.5126 | 759.01 | 1.086
308.15 K, x2 = 0.6256 | 753.64 | 1.1
308.15 K, x2 = 0.7002 | 750.27 | 1.108
308.15 K, x2 = 0.7989 | 746.01 | 1.122
308.15 K, x2 = 0.9012 | 741.81 | 1.137
313.15 K, x2 = 0 | 784.3 | 0.963
313.15 K, x2 = 0.1017 | 777.82 | 0.971
313.15 K, x2 = 0.1996 | 771.96 | 0.98
313.15 K, x2 = 0.2951 | 766.57 | 0.989
313.15 K, x2 = 0.4221 | 759.84 | 1.001
313.15 K, x2 = 0.5126 | 755.32 | 1.009
313.15 K, x2 = 0.6256 | 749.97 | 1.021
313.15 K, x2 = 0.7002 | 746.6 | 1.029
313.15 K, x2 = 0.7989 | 742.35 | 1.041
313.15 K, x2 = 0.9012 | 738.16 | 1.054
318.15 K, x2 = 0 | 780.52 | 0.901
318.15 K, x2 = 0.1017 | 774.07 | 0.908
318.15 K, x2 = 0.1996 | 768.22 | 0.915
318.15 K, x2 = 0.2951 | 762.85 | 0.923
318.15 K, x2 = 0.4221 | 756.14 | 0.934
318.15 K, x2 = 0.5126 | 751.63 | 0.942
318.15 K, x2 = 0.6256 | 746.29 | 0.952
318.15 K, x2 = 0.7002 | 742.93 | 0.959
318.15 K, x2 = 0.7989 | 738.69 | 0.969
318.15 K, x2 = 0.9012 | 734.5 | 0.98
323.15 K, x2 = 0 | 776.74 | 0.844
323.15 K, x2 = 0.1017 | 770.3 | 0.851
323.15 K, x2 = 0.1996 | 764.47 | 0.858
323.15 K, x2 = 0.2951 | 759.12 | 0.864
323.15 K, x2 = 0.4221 | 752.42 | 0.874
323.15 K, x2 = 0.5126 | 747.93 | 0.881
323.15 K, x2 = 0.6256 | 742.6 | 0.89
323.15 K, x2 = 0.7002 | 739.25 | 0.896
323.15 K, x2 = 0.7989 | 735.02 | 0.905
323.15 K, x2 = 0.9012 | 730.84 | 0.915
328.15 K, x2 = 0 | 772.93 | 0.794
328.15 K, x2 = 0.1017 | 766.52 | 0.8
328.15 K, x2 = 0.1996 | 760.71 | 0.806
328.15 K, x2 = 0.2951 | 755.37 | 0.812
328.15 K, x2 = 0.4221 | 748.7 | 0.821
328.15 K, x2 = 0.5126 | 744.22 | 0.827
328.15 K, x2 = 0.6256 | 738.9 | 0.834
328.15 K, x2 = 0.7002 | 735.56 | 0.84
328.15 K, x2 = 0.7989 | 731.33 | 0.848
328.15 K, x2 = 0.9012 | 727.16 | 0.858
333.15 K, x2 = 0 | 769.13 | 0.749
333.15 K, x2 = 0.1017 | 762.73 | 0.754
333.15 K, x2 = 0.1996 | 756.94 | 0.759
333.15 K, x2 = 0.2951 | 751.62 | 0.763
333.15 K, x2 = 0.4221 | 744.96 | 0.771
333.15 K, x2 = 0.5126 | 740.49 | 0.775
333.15 K, x2 = 0.6256 | 735.19 | 0.781
333.15 K, x2 = 0.7002 | 731.86 | 0.787
333.15 K, x2 = 0.7989 | 727.64 | 0.794
333.15 K, x2 = 0.9012 | 723.48 | 0.803
338.15 K, x2 = 0 | 765.3 | 0.708
338.15 K, x2 = 0.1017 | 758.93 | 0.712
338.15 K, x2 = 0.1996 | 753.16 | 0.716
338.15 K, x2 = 0.2951 | 747.85 | 0.721
338.15 K, x2 = 0.4221 | 741.21 | 0.728
338.15 K, x2 = 0.5126 | 736.75 | 0.733
338.15 K, x2 = 0.6256 | 731.47 | 0.738
338.15 K, x2 = 0.7002 | 728.14 | 0.742
338.15 K, x2 = 0.7989 | 723.94 | 0.749
338.15 K, x2 = 0.9012 | 719.78 | 0.756
343.15 K, x2 = 0 | 761.47 | 0.67
343.15 K, x2 = 0.1017 | 755.12 | 0.674
343.15 K, x2 = 0.1996 | 749.37 | 0.678
343.15 K, x2 = 0.2951 | 744.07 | 0.682
343.15 K, x2 = 0.4221 | 737.45 | 0.687
343.15 K, x2 = 0.5126 | 733 | 0.691
343.15 K, x2 = 0.6256 | 727.73 | 0.696
343.15 K, x2 = 0.7002 | 724.41 | 0.701
343.15 K, x2 = 0.7989 | 720.22 | 0.708
343.15 K, x2 = 0.9012 | 716.08 | 0.715
